Measured values as given in patent publication US6841566B2, “Viral polymerase inhibitors” (Boehringer Ingelheim, Ltd., priority 2001, dated 2005).

These molecules were tested on Huh7 cells that stably maintain a subgenomic HCV replicon (S22.3 cell-line) (assay: Cell based HCV RNA replication assay (S22.3 replicon cells, real-time RT-PCR)). Conditions: Hepatitis C virus, Huh-7, 72 hours.
Method: Huh7 cells that stably maintain a subgenomic HCV replicon were established as previously described (Lohman et al., 1999. Science 285: 110-113) and designated as the S22.3 cell-line. S22.3 cells were maintained in Dulbecco's Modified […] Medium (DMEM) supplemented with 10% FBS and 0.5 mg/mL neomycin (Standard Medium). During the assay, DMEM medium supplemented with 10% FBS, containing 0.5% DMSO and lacking neomycin was used (Assay Medium). 16 hours prior to compound addition, S22.3 cells are trypsinized and diluted to 100 000 cells/ml in Standard Medium. 100μL (10 000 cells) are distributed into each well of a 96-well plate. The plate was then incubated at 37° C. with 5% CO2 until the next day.
10 μL of test compound (in 100% DMSO) was added to 2 ml of Assay Medium for a final DMSO concentration of 0.5% and the solution was sonicated for 15 min and filtered through a […] Millipore Filter Unit. 900 μl was transferred into row A of a Polypropylene Deep-Well Titer Plate. Rows B to H, contain 400 μL aliquots of Assay Medium (containing 0.5% DMSO), and were used to prepare serial dilutions (1/2) by transferring 400 μl from row to row (no compound was included in row H).
Cell culture medium was aspirated from the 96-well plate containing the S22.3 cells. 175 μL of assay medium with the appropriate dilution of test compound was transferred from each well of the compound plate to the corresponding well of the cell culture plate (row H was used as the “No inhibition control”). The cell culture plate was incubated at 37° C. with 5% CO2 for 72 hours.
Following the 72 hour incubation period, the total cellular RNA was extracted from the S22.3 cells of the 96-well plate using the RNeasy 96 kit (Qiagen®, RNeasy Handbook. 1999.). Briefly, assay medium was completely removed from cells and 100 μL of RLT buffer (Qiagen®) containing 143 mM β-mercaptoethanol was added to each well of the 96-well cell-culture plate. The microplate was gently shaken for 20 sec. 100 μL of 70% ethanol was then added to each microplate well, and mixed by pipetting. The lysate was removed and applied to the wells of a RNeasy 96 (Qiagen®) plate that was placed on top of a Qiagen® Square-Well Block. The RNeasy 96 plate was sealed with tape and the Square-Well Block with the RNeasy 96 plate was loaded into the holder and placed in a rotor bucket of a 4K15C centrifuge. The sample was centrifuged at 6000 rpm (˜5600×g) for 4 min at room temperature. The tape was removed from the plate and 0.8 ml of Buffer RW1 (Qiagen® RNeasy 96 kit) was added to each well of the RNeasy 96 plate. The RNeasy 96 plate was sealed with a new piece of tape and centrifuged at 6000 rpm for 4 min at room temperature. The RNeasy 96 plate was placed on top of another clean Square-Well Block, the tape removed and 0.8 ml of Buffer RPE (Qiagen® RNeasy 96 kit) was added to each well of the RNeasy 96 plate. The RNeasy 96 plate was sealed with a new piece of tape and centrifuged at 6000 rpm for 4 min at room temperature. The tape was removed and another 0.8 ml of Buffer RPE (Qiagen® RNeasy 96 kit) was added to each well of the RNeasy 96 plate. The RNeasy 96 plate was sealed with a new piece of tape and centrifuged at 6000 rpm for 10 min at room temperature. Tape was removed, the RNeasy 96 plate was placed on top of a rack containing 1.2-mL collection microtubes. The RNA was eluted by adding 50 μL of RNase-free water to each well, sealing plate with a new piece of tape and incubated for 1 min at room temperature. The plate was then centrifuged at 6000 rpm for 4 min at room temperature. The elution step was repeated with a second volume of 50 μl RNase-free water. The microtubes with total cellular RNA are stored at −70° C.
RNA was quantified on the STORM® system (Molecular Dynamics®) using the RiboGreen® RNA Quantification Kit (Molecular Probes®). Briefly, the RiboGreen reagent was diluted 200-fold in TE (10 mM Tris-HCl pH=7.5, 1 mM EDTA). Generally, 50 μL of reagent was diluted in 10 mL TE. […]

**Q.** With O=C(O)C=Cc1ccc(NC(=O)C2(NC(=O)c3ccc4c(c3)nc(-c3ccco3)n4C3CC4CCC3C4)CCCC2)cc1 (mixture of isomers) [compound 2017] as the molecule, how does the EC50 read?
**A.** ≤ 5 µM

**Q.** Which EC50 does the source give for O=C(O)C=Cc1ccc(NC(=O)C2(NC(=O)c3ccc4c(c3)nc(-c3cccs3)n4C3CC4CCC3C4)CCCC2)cc1 (mixture of isomers) [compound 2019] here?
**A.** ≤ 5 µM

**Q.** With O=C(O)C=Cc1ccc(NC(=O)C2(NC(=O)c3ccc4c(c3)nc(-c3ccccn3)n4C3CC4CCC3C4)CCCC2)cc1 (mixture of isomers) [compound 2020] as the molecule, how does the EC50 read?
**A.** ≤ 5 µM

**Q.** How did the EC50 turn out when O=C(O)C=Cc1ccc(NC(=O)C2(NC(=O)c3ccc4c(c3)nc(-c3ccoc3)n4C3CC4CCC3C4)CCCC2)cc1 (mixture of isomers) [compound 2021] was run?
**A.** ≤ 5 µM

**Q.** For CC1CCCC(C)C1n1c(-c2ccco2)nc2cc(C(=O)NC3(C(=O)Nc4ccc(C=CC(=O)O)cc4)CCCC3)ccc21 (mixture of isomers) [compound 2033], which EC50 is on record?
**A.** ≤ 5 µM

**Q.** Which EC50 does the source give for CC1CCCC(C)C1n1c(-c2cccs2)nc2cc(C(=O)NC3(C(=O)Nc4ccc(C=CC(=O)O)cc4)CCCC3)ccc21 (mixture of isomers) [compound 2035] here?
**A.** ≤ 5 µM

**Q.** How did the EC50 turn out when CC1CCCC(C)C1n1c(-c2ccccn2)nc2cc(C(=O)NC3(C(=O)Nc4ccc(C=CC(=O)O)cc4)CCCC3)ccc21 (mixture of isomers) [compound 2036] was run?
**A.** ≤ 5 µM

**Q.** C[C@@H]1CCCC[C@H]1n1c(-c2ccccn2)nc2cc(C(=O)NC3(C(=O)Nc4ccc(/C=C/C(=O)O)cc4)CCCC3)ccc21 (racemic) [compound 2044] was tested. Which EC50 did it give?
**A.** ≤ 5 µM

**Q.** With CC(NC(=O)c1ccc2c(c1)nc(-c1ccoc1)n2C1CCCCC1)C(=O)Nc1cccc(-c2cccc(N)c2)c1 (stereo not drawn) [compound 1022] as the molecule, how does the EC50 read?
**A.** 5 to 50 µM

**Q.** Cc1cc(=O)oc2cc(NC(=O)[C@@H](C)NC(=O)c3ccc4c(c3)nc(-c3ccoc3)n4C3CCCCC3)ccc12 [compound 1026] was tested. Which EC50 did it give?
**A.** ≤ 5 µM

**Q.** Which EC50 does the source give for CC(NC(=O)c1ccc2c(c1)nc(-c1ccoc1)n2C1CCCCC1)C(=O)Nc1ccc(C(=O)O)cc1 (stereo not drawn) [compound 1053] here?
**A.** 5 to 50 µM

**Q.** With CC(NC(=O)c1ccc2c(c1)nc(-c1ccoc1)n2C1CCCCC1)C(=O)Nc1ccc(/C=C/C(=O)O)cc1 (stereo not drawn) [compound 1054] as the molecule, how does the EC50 read?
**A.** 5 to 50 µM

**Q.** For C[C@H](NC(=O)c1ccc2c(c1)nc(-c1ccoc1)n2C1CCCCC1)C(=O)Nc1ccc(/C=C/C(=O)O)cc1 [compound 1056], which EC50 is on record?
**A.** 5 to 50 µM

**Q.** For C[C@@H](NC(=O)c1ccc2c(c1)nc(-c1ccoc1)n2C1CCCCC1)C(=O)Nc1ccc(/C=C/C(=O)O)cc1 [compound 1057], which EC50 is on record?
**A.** 5 to 50 µM

**Q.** With CC(NC(=O)c1ccc2c(c1)nc(-c1ccoc1)n2C1CCCCC1)C(=O)Nc1ccc(-c2ccc(C(=O)O)o2)cc1 (stereo not drawn) [compound 1060] as the molecule, how does the EC50 read?
**A.** 5 to 50 µM

**Q.** Which EC50 does the source give for O=C(O)/C=C/c1ccc(NC(=O)C2(NC(=O)c3ccc4c(c3)nc(-c3ccoc3)n4C3CCCCC3)CC2)cc1 [compound 1070, (E)-3-(4-{[1-(1-{[1-(1-Cyclohexyl-2-furan-3-yl-1H-benzoimidazol-5-yl)-methanoyl]-amino}-cyclopropyl)-methanoyl]-amino}-phenyl)-acrylic acid] here?
**A.** 5 to 50 µM

**Q.** How did the EC50 turn out when O=C(O)/C=C/c1ccc(NC(=O)C2(NC(=O)c3ccc4c(c3)nc(-c3ccoc3)n4C3CCCCC3)CCCC2)cc1 [compound 1071] was run?
**A.** ≤ 5 µM

**Q.** Which EC50 does the source give for O=C(O)/C=C/c1ccc(NC(=O)C2(NC(=O)c3ccc4c(c3)nc(-c3ccoc3)n4C3CCCCC3)CCCCC2)cc1 [compound 1072] here?
**A.** ≤ 5 µM

**Q.** How did the EC50 turn out when Cc1oc(-c2cccc(NC(=O)[C@@H](C)NC(=O)c3ccc4c(c3)nc(-c3ccoc3)n4C3CCCCC3)c2)cc1C(=O)O [compound 1074] was run?
**A.** ≤ 5 µM

**Q.** Which EC50 does the source give for CC[C@@H](NC(=O)c1ccc2c(c1)nc(-c1ccoc1)n2C1CCCCC1)C(=O)Nc1ccc(/C=C/C(=O)O)cc1 [compound 1075, (E)-3-[4-((R)-2-{[1-(1-Cyclohexyl-2-furan-3-yl-1H-benzoimidazol-5-yl)-methanoyl]-amino}-butanoylamino)-phenyl]-acrylic acid] here?
**A.** 5 to 50 µM

**Q.** CCC[C@@H](NC(=O)c1ccc2c(c1)nc(-c1ccoc1)n2C1CCCCC1)C(=O)Nc1ccc(/C=C/C(=O)O)cc1 [compound 1076] was tested. Which EC50 did it give?
**A.** ≤ 5 µM

**Q.** How did the EC50 turn out when Cn1c(C(=O)O)cc2cc(NC(=O)C3(NC(=O)c4ccc5c(c4)nc(-c4ccoc4)n5C4CCCCC4)CCCC3)ccc21 [compound 1077] was run?
**A.** ≤ 5 µM

**Q.** How did the EC50 turn out when O=C(NC1(C(=O)Nc2ccc3nc(S)sc3c2)CCCC1)c1ccc2c(c1)nc(-c1ccoc1)n2C1CCCCC1 [compound 1078] was run?
**A.** ≤ 5 µM

**Q.** O=C(O)/C=C/c1ccc(NC(=O)CNC(=O)c2ccc3c(c2)nc(-c2ccoc2)n3C2CCCCC2)cc1 [compound 1079] was tested. Which EC50 did it give?
**A.** 5 to 50 µM

**Q.** For O=C(NC1(C(=O)Nc2ccc(-c3ccc(C(=O)O)o3)cc2)CCCC1)c1ccc2c(c1)nc(-c1ccoc1)n2C1CCCCC1 [compound 1080], which EC50 is on record?
**A.** ≤ 5 µM

**Q.** With C/C(=C\c1ccc(NC(=O)C2(NC(=O)c3ccc4c(c3)nc(-c3ccoc3)n4C3CCCCC3)CCCC2)cc1)C(=O)O [compound 1083] as the molecule, how does the EC50 read?
**A.** ≤ 5 µM

**Q.** How did the EC50 turn out when CCn1c(C(=O)O)cc2cc(NC(=O)C3(NC(=O)c4ccc5c(c4)nc(-c4ccoc4)n5C4CCCCC4)CCCC3)ccc21 [compound 1085] was run?
**A.** ≤ 5 µM

**Q.** With Cc1cc(NC(=O)C2(NC(=O)c3ccc4c(c3)nc(-c3ccoc3)n4C3CCCCC3)CCCC2)ccc1/C=C/C(=O)O [compound 1088] as the molecule, how does the EC50 read?
**A.** ≤ 5 µM

**Q.** With CC(C)(C)OC(=O)N1CCC(NC(=O)c2ccc3c(c2)nc(-c2ccoc2)n3C2CCCCC2)(C(=O)Nc2ccc(/C=C/C(=O)O)cc2)CC1 [compound 1089] as the molecule, how does the EC50 read?
**A.** ≤ 5 µM

**Q.** Cc1nc(C(=O)O)sc1-c1ccc(NC(=O)C2(NC(=O)c3ccc4c(c3)nc(-c3ccoc3)n4C3CCCCC3)CCCC2)cc1 [compound 1091] was tested. Which EC50 did it give?
**A.** ≤ 5 µM

**Q.** For CC(C)(NC(=O)c1ccc2c(c1)nc(-c1ccoc1)n2C1CCCCC1)C(=O)Nc1ccc(/C=C/C(=O)O)cc1 [compound 1093], which EC50 is on record?
**A.** ≤ 5 µM

**Q.** For O=C(O)/C=C/c1ccc(NC(=O)C2(NC(=O)c3ccc4c(c3)nc(-c3ccoc3)n4C3CCCCC3)CCC2)cc1 [compound 1094], which EC50 is on record?
**A.** ≤ 5 µM

**Q.** O=C(NC1(C(=O)Nc2ccc3[nH]c(C(=O)O)cc3c2)CCCC1)c1ccc2c(c1)nc(-c1ccoc1)n2C1CCCCC1 [compound 1098] was tested. Which EC50 did it give?
**A.** 5 to 50 µM

**Q.** How did the EC50 turn out when Cc1c(C(=O)O)sc2ccc(NC(=O)C3(NC(=O)c4ccc5c(c4)nc(-c4ccoc4)n5C4CCCCC4)CCCC3)cc12 [compound 1099] was run?
**A.** ≤ 5 µM

**Q.** O=C(O)/C=C/c1ccc(NC(=O)C2(NC(=O)c3ccc4c(c3)nc(-c3ccoc3)n4C3CCCCC3)CCNCC2)cc1 [compound 1100] was tested. Which EC50 did it give?
**A.** ≤ 5 µM

**Q.** With Cn1c(C(=O)O)cc2cc(NC(=O)C3(NC(=O)c4ccc5c(c4)nc(-c4ccoc4)n5C4CCCCC4)CCCNC3)ccc21 (stereo not drawn) [compound 1104] as the molecule, how does the EC50 read?
**A.** ≤ 5 µM

**Q.** For CCN1CCC(NC(=O)c2ccc3c(c2)nc(-c2ccoc2)n3C2CCCCC2)(C(=O)Nc2ccc(-c3nc(C(=O)O)cs3)cc2)CC1 [compound 1108], which EC50 is on record?
**A.** ≤ 5 µM

**Q.** For CCN1CCC(NC(=O)c2ccc3c(c2)nc(-c2ccoc2)n3C2CCCCC2)(C(=O)Nc2ccc(-c3nc(C(N)=O)cs3)cc2)CC1 [compound 1109], which EC50 is on record?
**A.** ≤ 5 µM

**Q.** Which EC50 does the source give for O=C(O)/C=C/c1ccc(NC(=O)C2(NC(=O)c3ccc4c(c3)nc(-c3ccsc3)n4C3CCCCC3)CCCC2)cc1 [compound 2001] here?
**A.** ≤ 5 µM

**Q.** C[C@@H](NC(=O)c1ccc2c(c1)nc(-c1ccccn1)n2C1CCCCC1)C(=O)Nc1ccc(/C=C/C(=O)O)cc1 [compound 2002] was tested. Which EC50 did it give?
**A.** ≤ 5 µM

**Q.** Which EC50 does the source give for C[C@@H](NC(=O)c1ccc2c(c1)nc(-c1ccccc1)n2C1CCCCC1)C(=O)Nc1ccc(/C=C/C(=O)O)cc1 [compound 2003] here?
**A.** 5 to 50 µM

**Q.** With C[C@@H](NC(=O)c1ccc2c(c1)nc(-c1ccc[nH]1)n2C1CCCCC1)C(=O)Nc1ccc(/C=C/C(=O)O)cc1 [compound 2004] as the molecule, how does the EC50 read?
**A.** 5 to 50 µM
